# Measured values as given in patent US20070088080A1, “Gsk-3 inhibitors isolated from marine organisms” (NEUROPHARMA, S.A., priority 2003, published 2007).
# What was measured:
# [1] = tested on: Tau phosphorylation [pS396] in human neuroblastoma SHSY5Y cells; assay: Inhibition of tau phosphorylation in SHSY5Y cells, Tau [pS396] sandwich ELISA; format: cell-based; details: at 200 μM, 24 h
# Experimental: 1.1.2. Inhibition of Tau Phosphorylation Human neuroblastoma SHSY5Y cells were seeded in 96-well plates (25000 cells/well) in Dulbecco's modified Eagle's medium (DMEM) supplemented with 10% fetal calf serum. One day later, cells were treated with samples for 24 h at 37° C. After treatment, cultures were washed with phosphate-buffered saline and lysed for 30 min at 4° C. in 120 μl of extraction buffer (10 mM Tris-HCl, pH 7.4, 100 mM NaCl, 1 mM EDTA, 2 mM Na3VO4, 1% Triton X-100, 10% glycerol, 0.1% SDS, 0.5% Sodium deo.ycholate, 1 mM PMSF and a protease inhibitor cocktail.
# The quantitative definition of phosphorylated human Tau was made taking 40 μl of the cell lysate and using a phosphorylation-specific antibody against Tau [pS396] in a sandwich ELISA. Tau phosphorylation was estimated by measuring of absorbance at 450 nm in a microtiter plate reader.
# [2] = molecular target: Recombinant human glycogen synthase kinase 3β (Homo sapiens, UniProt P49841); assay: GSK3β inhibition, radiometric kinase assay with GS-2 peptide and 33P-ATP
# Sequence of Recombinant human glycogen synthase kinase 3β (P49841 whole entry): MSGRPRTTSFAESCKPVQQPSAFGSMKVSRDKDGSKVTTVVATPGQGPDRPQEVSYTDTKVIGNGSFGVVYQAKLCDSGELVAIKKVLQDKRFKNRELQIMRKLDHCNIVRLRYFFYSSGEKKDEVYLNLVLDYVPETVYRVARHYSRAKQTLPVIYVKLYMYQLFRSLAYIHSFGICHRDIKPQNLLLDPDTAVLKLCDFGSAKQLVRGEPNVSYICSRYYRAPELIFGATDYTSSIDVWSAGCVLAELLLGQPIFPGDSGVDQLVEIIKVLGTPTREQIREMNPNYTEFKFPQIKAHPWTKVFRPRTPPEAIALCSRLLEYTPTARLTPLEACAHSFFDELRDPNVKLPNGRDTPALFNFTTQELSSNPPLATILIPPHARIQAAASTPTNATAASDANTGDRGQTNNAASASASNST
# Experimental: Recombinant human glycogen synthase kinase 3B was assayed in MOPS 8 mM pH7.3, EDTA 0.2 mM, MgCl. 10 mM and sodium orthovanadate 0.25 mM in the presence of 62.5 μM of Phospho-Glycogen Synthase Peptide-2 (GS-2), 0.5 μCi γ-^33P-ATP and unlabelled ATP at a final concentration of 12.5 μM. The final assay volume was 20 μl. After incubation for 30 minutes at 30° C., 15 μl aliquots were spotted onto P81 phosphocellulose papers. Filters were washed four times for at least 10 minutes each and counted with 1.5 ml of scintillation cocktail in a scintillation counter.
IC50 [2] [µM],"mechanism of inhibition of GSK3β ([2]; kinetic experiments varying both ATP and inhibitor concentrations, preliminary)",Compound,"inhibition of tau phosphorylation, cellular assay [1]"
4.5,non As-competitive inhibitor,CC1=C(O)[C@@H](C/C(C)=C/CC[C@H](C)/C=C/C=C(\C)CCCc2ccoc2)OC1=O [Palinurin],significant inhibition
,,C/C(=C\C=C\C(C)CC/C=C(\C)CC1OC(=O)C(=O)C1=O)CCCc1ccoc1 (stereo not shown) [Tricantin],significant inhibition
